{"source": "patent US20060142349A1", "about": "“Methods of modulating the activities of alpha-7 nicotinic acetylcholine receptor” (Pfizer Inc, priority 2004, published 2006)", "key": {"[1]": {"target": "T1, α7 nicotinic acetylcholine receptor (Rattus norvegicus, UniProt Q05941)", "T1 construct": "Currents were recorded from individual neurons using the whole; endogenous in cells; host or cells: primary hippocampal neurons from postnatal day 3 Sprague-Dawley rats, cultured 1-2 weeks", "T1 sequence (Q05941 23-502)": "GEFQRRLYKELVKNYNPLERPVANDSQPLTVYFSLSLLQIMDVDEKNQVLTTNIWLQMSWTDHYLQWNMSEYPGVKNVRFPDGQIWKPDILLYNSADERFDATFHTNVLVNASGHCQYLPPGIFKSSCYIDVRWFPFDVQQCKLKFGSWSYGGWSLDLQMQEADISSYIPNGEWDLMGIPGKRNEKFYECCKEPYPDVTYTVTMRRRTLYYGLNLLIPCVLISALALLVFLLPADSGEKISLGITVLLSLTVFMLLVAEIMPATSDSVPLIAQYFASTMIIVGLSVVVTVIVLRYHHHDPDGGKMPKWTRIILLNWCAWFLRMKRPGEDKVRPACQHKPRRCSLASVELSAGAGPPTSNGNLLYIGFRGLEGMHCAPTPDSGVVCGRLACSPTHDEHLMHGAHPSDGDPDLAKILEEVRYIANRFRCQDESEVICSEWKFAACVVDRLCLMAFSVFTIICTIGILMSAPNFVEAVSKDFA", "assay": "Resensitization of desensitized α7 nicotinic acetylcholine receptor, whole cell patch clamp", "format": "cell-based"}, "[2]": {"target": "T1, α7 nicotinic acetylcholine receptor", "assay": "Inhibition of desensitization of α7 nicotinic acetylcholine receptor by acetylcholine, whole cell patch clamp", "format": "cell-based", "settings": "rat hippocampal neurons, continuous exposure to compound, acetylcholine 1 mM applied for 1 second once every minute"}}, "note": "“Also recorded” adds a separate entry of the source. Where two headings read alike, the source gives them in different places."}
{"smiles": "Oc1ccc2[nH]ccc2c1", "note": "[5-hydroxyindole]", "values": [{"measurement": "resensitization of the desensitized α7 nicotinic acetylcholine receptor (inward current evoked in the continued presence of agonist)", "setting": "[1]; rat hippocampal neurons, applied after 60 seconds of continuous exposure to agonist Compound 1 (3 μM), in its continued presence", "result": "does not resensitize; also recorded: did not resensitize; also recorded: no significant effect"}, {"measurement": "inhibition of desensitization (desensitization kinetics of acetylcholine-induced ion currents)", "setting": "[2]", "result": "does not alter the rate of receptor desensitization; also recorded: had no such effect; also recorded: did not affect the desensitization kinetics"}]}
{"smiles": "Cl.O=C(N[C@H]1CN2CCC1CC2)c1ccc(Cl)cc1", "note": "[Compound 1, N-[(3R)-1-azabicyclo[2.2.2]oct-3-yl]-4-chlorobenzamide hydrochloride]", "values": [{"measurement": "agonist-evoked inward current and receptor desensitization", "setting": "[1]; rat hippocampal neurons, agonist applied continuously for 3 minutes, hydrochloride", "result": "desensitization; also recorded: initial inward current that rapidly declined back to baseline"}]}
{"smiles": "COc1cc(OC)c(NC(=O)Nc2cc(C)on2)cc1Cl", "note": "[Compound 2, N-(5-chloro-2,4-dimethoxyphenyl)-N′-(5-methylisoxazol-3-yl)urea]", "values": [{"measurement": "resensitization of the desensitized α7 nicotinic acetylcholine receptor (inward current evoked in the continued presence of agonist)", "setting": "[1]", "result": "resensitizes; also recorded: large persistent inward current that was readily reversed upon washout"}, {"measurement": "inhibition of desensitization (desensitization kinetics of acetylcholine-induced ion currents)", "setting": "[2]", "result": "inhibition"}, {"measurement": "inhibition of desensitization (desensitization kinetics of acetylcholine-induced ion currents)", "setting": "[2]; listed as compound 2", "result": "significant inhibition or slowing of receptor desensitization"}]}
{"smiles": "CN1CCCC1c1cccnc1", "note": "(stereo not shown) [nicotine]", "values": [{"measurement": "agonist-evoked inward current and receptor desensitization", "setting": "[1]; nicotine as agonist, expected result (\"should result\")", "result": "initial inward current that rapidly declines back to baseline"}]}
